# Measurements: ChEMBL document CHEMBL5131391, “One-pot three-component synthesis of novel pyrazolo[3,4-b]pyridines as potent antileukemic agents” (Eur J Med Chem, 2022)
# Tests used:
# Assay type in all cases: functional
# [1] = system: NCI-H460; assay: Antiproliferative activity against human NCI-H460 cells assessed as growth inhibition at 10 uM measured after 48 hrs by NCI protocol based SRB assay relative to control; conditions: read-out: GI
# [2] = system: NCI-H226; assay: Antiproliferative activity against human NCI-H226 cells assessed as growth inhibition at 10 uM measured after 48 hrs by NCI protocol based SRB assay relative to control; conditions: read-out: GI
# [3] = system: CCRF-CEM; assay: Antiproliferative activity against human CEM cells assessed as reduction in cell viability incubated for 72 hrs by resazurin dye based assay
# [4] = system: HCT-15; assay: Antiproliferative activity against human HCT-15 cells assessed as growth inhibition at 10 uM measured after 48 hrs by NCI protocol based SRB assay relative to control; conditions: read-out: GI
# [5] = system: UO-31; assay: Antiproliferative activity against human UO-31 cells assessed as growth inhibition at 10 uM measured after 48 hrs by NCI protocol based SRB assay relative to control; conditions: read-out: GI
# [6] = system: Malme-3M; assay: Antiproliferative activity against human Malme-3M cells assessed as growth inhibition at 10 uM measured after 48 hrs by NCI protocol based SRB assay relative to control; conditions: read-out: GI
# [7] = system: OVCAR-4; assay: Antiproliferative activity against human OVCAR-4 cells assessed as growth inhibition at 10 uM measured after 48 hrs by NCI protocol based SRB assay relative to control; conditions: read-out: GI
# [8] = system: DU-145; assay: Antiproliferative activity against human DU-145 cells assessed as growth inhibition at 10 uM measured after 48 hrs by NCI protocol based SRB assay relative to control; conditions: read-out: GI
# [9] = system: U-251; assay: Antiproliferative activity against human U-251 cells assessed as growth inhibition at 10 uM measured after 48 hrs by NCI protocol based SRB assay relative to control; conditions: read-out: GI
# [10] = system: RXF 393; assay: Antiproliferative activity against human RXF 393 cells assessed as growth inhibition at 10 uM measured after 48 hrs by NCI protocol based SRB assay relative to control; conditions: read-out: GI
# [11] = system: SNB-19; assay: Antiproliferative activity against human SNB-19 cells assessed as growth inhibition at 10 uM measured after 48 hrs by NCI protocol based SRB assay relative to control; conditions: read-out: GI
# [12] = system: OVCAR-3; assay: Antiproliferative activity against human OVCAR-3 cells assessed as growth inhibition at 10 uM measured after 48 hrs by NCI protocol based SRB assay relative to control; conditions: read-out: GI
# [13] = system: MV4-11; assay: Antiproliferative activity against human MV4-11 cells assessed as reduction in cell viability incubated for 72 hrs by resazurin dye based assay; conditions: MV4-11, 72 h
# [14] = system: HOP-92; assay: Antiproliferative activity against human HOP-92 cells assessed as growth inhibition at 10 uM measured after 48 hrs by NCI protocol based SRB assay relative to control; conditions: read-out: GI
# [15] = system: HOP-62; assay: Antiproliferative activity against human HOP-62 cells assessed as growth inhibition at 10 uM measured after 48 hrs by NCI protocol based SRB assay relative to control; conditions: read-out: GI
# [16] = system: K562; assay: Antiproliferative activity against human K562 cells assessed as reduction in cell viability incubated for 72 hrs by resazurin dye based assay; conditions: K562, 72 h
# [17] = system: MCF7; assay: Antiproliferative activity against human MCF7 cells assessed as growth inhibition at 10 uM measured after 48 hrs by NCI protocol based SRB assay relative to control; conditions: read-out: GI
# [18] = system: NCI/ADR-RES; assay: Antiproliferative activity against human NCl/ADR-RES cells assessed as growth inhibition at 10 uM measured after 48 hrs by NCI protocol based SRB assay relative to control; conditions: read-out: GI
# [19] = system: T47D; assay: Antiproliferative activity against human T47D cells assessed as growth inhibition at 10 uM measured after 48 hrs by NCI protocol based SRB assay relative to control; conditions: read-out: GI
# [20] = system: IGROV-1; assay: Antiproliferative activity against human IGROV-1 cells assessed as growth inhibition at 10 uM measured after 48 hrs by NCI protocol based SRB assay relative to control; conditions: read-out: GI
# [21] = system: SK-MEL-5; assay: Antiproliferative activity against human SK-MEL-5 cells assessed as growth inhibition at 10 uM measured after 48 hrs by NCI protocol based SRB assay relative to control; conditions: read-out: GI
# [22] = system: ACHN; assay: Antiproliferative activity against human ACHN cells assessed as growth inhibition at 10 uM measured after 48 hrs by NCI protocol based SRB assay relative to control; conditions: read-out: GI
# [23] = system: MDA-MB-231; assay: Antiproliferative activity against human MDA-MB-231 cells assessed as growth inhibition at 10 uM measured after 48 hrs by NCI protocol based SRB assay relative to control; conditions: read-out: GI
# [24] = system: UACC-62; assay: Antiproliferative activity against human UACC-62 cells assessed as growth inhibition at 10 uM measured after 48 hrs by NCI protocol based SRB assay relative to control; conditions: read-out: GI
# [25] = system: SW-620; assay: Antiproliferative activity against human SW-620 cells assessed as growth inhibition at 10 uM measured after 48 hrs by NCI protocol based SRB assay relative to control; conditions: read-out: GI
# [26] = system: SNB-75; assay: Antiproliferative activity against human SNB-75 cells assessed as growth inhibition at 10 uM measured after 48 hrs by NCI protocol based SRB assay relative to control; conditions: read-out: GI
# [27] = system: CCRF-CEM; assay: Antiproliferative activity against human CCRF-CEM cells assessed as growth inhibition at 10 uM measured after 48 hrs by NCI protocol based SRB assay relative to control; conditions: read-out: GI
# [28] = system: 786-0; assay: Antiproliferative activity against human 786-0 cells assessed as growth inhibition at 10 uM measured after 48 hrs by NCI protocol based SRB assay relative to control; conditions: read-out: GI
# [29] = system: RPMI-8226; assay: Antiproliferative activity against human RPMI-8226 cells assessed as growth inhibition at 10 uM measured after 48 hrs by NCI protocol based SRB assay relative to control; conditions: read-out: GI
# [30] = system: SF-268; assay: Antiproliferative activity against human SF-268 cells assessed as growth inhibition at 10 uM measured after 48 hrs by NCI protocol based SRB assay relative to control; conditions: read-out: GI
# [31] = system: PC-3; assay: Antiproliferative activity against human PC-3 cells assessed as growth inhibition at 10 uM measured after 48 hrs by NCI protocol based SRB assay relative to control; conditions: read-out: GI
# [32] = system: OVCAR-8; assay: Antiproliferative activity against human OVCAR-8 cells assessed as growth inhibition at 10 uM measured after 48 hrs by NCI protocol based SRB assay relative to control; conditions: read-out: GI
# [33] = system: SF-539; assay: Antiproliferative activity against human SF-539 cells assessed as growth inhibition at 10 uM measured after 48 hrs by NCI protocol based SRB assay relative to control; conditions: read-out: GI
# [34] = system: SF-295; assay: Antiproliferative activity against human SF-295 cells assessed as growth inhibition at 10 uM measured after 48 hrs by NCI protocol based SRB assay relative to control; conditions: read-out: GI
# [35] = system: UACC-257; assay: Antiproliferative activity against human UACC-257 cells assessed as growth inhibition at 10 uM measured after 48 hrs by NCI protocol based SRB assay relative to control; conditions: read-out: GI
# [36] = system: K562; assay: Antiproliferative activity against human K562 cells assessed as growth inhibition at 10 uM measured after 48 hrs by NCI protocol based SRB assay relative to control; conditions: read-out: GI
# [37] = system: HL-60(TB); assay: Antiproliferative activity against human HL-60(TB) cells assessed as growth inhibition at 10 uM measured after 48 hrs by NCI protocol based SRB assay relative to control; conditions: read-out: GI
Compound,inhibition of growth at 10 µM [1],inhibition of growth at 10 µM [2],IC50 [3],inhibition of growth at 10 µM [4],inhibition of growth at 10 µM [6],inhibition of growth at 10 µM [7],inhibition of growth at 10 µM [8],inhibition of growth at 10 µM [9],inhibition of growth at 10 µM [12],IC50 [13],inhibition of growth at 10 µM [14],inhibition of growth at 10 µM [15],IC50 [16],inhibition of growth at 10 µM [17],inhibition of growth at 10 µM [18],inhibition of growth at 10 µM [19],inhibition of growth at 10 µM [20],inhibition of growth at 10 µM [21],inhibition of growth at 10 µM [22],inhibition of growth at 10 µM [23],further results
COc1cc(-c2c(C#N)c(-c3ccccc3)nc3c2c(-c2ccccc2)nn3-c2ccccc2)ccc1O,38%,24%,> 50 µM,30%,43%,34%,25%,31%,23%,> 50 µM,22%,15%,> 50 µM,53%,22%,39%,13%,21%,13%,28%,inhibition of growth at 10 µM [5]: 32%; inhibition of growth at 10 µM [10]: 42%; inhibition of growth at 10 µM [11]: 24%; inhibition of growth at 10 µM [24]: 12%; inhibition of growth at 10 µM [25]: 22%; inhibition of growth at 10 µM [26]: 20%; inhibition of growth at 10 µM [27]: 31%; inhibition of growth at 10 µM [28]: 24%; inhibition of growth at 10 µM [29]: 40%; inhibition of growth at 10 µM [30]: 27%; inhibition of growth at 10 µM [31]: 49%; inhibition of growth at 10 µM [32]: 28%; inhibition of growth at 10 µM [33]: 18%
N#Cc1c(-c2ccccc2)nc2c(c(-c3ccccc3)nn2-c2ccccc2)c1-c1ccc(O)cc1,91%,46%,33.4 µM,66%,57%,28%,51%,76%,46%,26.1 µM,50%,75%,9.6 µM,86%,30%,65%,29%,42%,58%,77%,inhibition of growth at 10 µM [5]: 73%; inhibition of growth at 10 µM [10]: 117%; inhibition of growth at 10 µM [11]: 61%; inhibition of growth at 10 µM [34]: 143%; inhibition of growth at 10 µM [24]: 39%; inhibition of growth at 10 µM [35]: 29%; inhibition of growth at 10 µM [25]: 84%; inhibition of growth at 10 µM [26]: 67%; inhibition of growth at 10 µM [27]: 78%; inhibition of growth at 10 µM [28]: 97%; inhibition of growth at 10 µM [29]: 87%; inhibition of growth at 10 µM [30]: 45%; inhibition of growth at 10 µM [31]: 96%; inhibition of growth at 10 µM [32]: 45%; inhibition of growth at 10 µM [33]: 77%
N#Cc1c(-c2ccco2)nc2c(c(-c3ccccc3)nn2-c2ccccc2)c1-c1ccc(O)cc1,51%,27%,23.9 µM,62%,66%,23%,25%,39%,14%,13.8 µM,24%,149%,4.2 µM,53%,24%,82%,16%,13%,28%,18%,inhibition of growth at 10 µM [36]: 85%; inhibition of growth at 10 µM [37]: 78%; inhibition of growth at 10 µM [34]: 34%; inhibition of growth at 10 µM [24]: 11%; inhibition of growth at 10 µM [35]: 40%; inhibition of growth at 10 µM [25]: 53%; inhibition of growth at 10 µM [26]: 29%; inhibition of growth at 10 µM [27]: 59%; inhibition of growth at 10 µM [28]: 41%; inhibition of growth at 10 µM [29]: 45%; inhibition of growth at 10 µM [30]: 33%; inhibition of growth at 10 µM [31]: 77%; inhibition of growth at 10 µM [32]: 45%; inhibition of growth at 10 µM [33]: 18%
